# From patent US7427617B2, “Morpoline-bridged indazole derivatives” (Bayer Healthcare AG, priority 2002, dated 2008)
# Test system: primary cortical neurons
# Experiment: Increase of cGMP in primary cortical neurons
# Assay type: cell-based
# Conditions: 0.1 μM test substance; rat primary cortical neurons; IBMX 100 μM; 20 min at 37° C.; cGMP by EIA
# Procedure: Increase of cGMP in Primary Cortical Neurons
# Rat embryos (embryonic day 17-19) are decapitated, and the cerebrum is removed and incubated with 5 ml of papain solution and 250 μl of DNAse (papain kit from Cell-System) at 37° C. for 30 min, homogenized using a Pasteur pipette and centrifuged at 1200 rpm for 5 min. The supernatant is removed, the cell pellet resuspended (in 2.7 ml of EBSS [Earl's balanced salt solution], 300 μl of ovomucoid/albumin (conc.) solution, 150 μl of DNAse; papain kit from Cell-System), layered over 5 ml of ovomucoid/albumin solution and centrifuged at 700 rpm for 6 min. The supernatant is removed, the cells are resuspended in cultivation medium (Gibco neurobasal medium, B27 Supplement 50×1 ml/100 ml, 2 mM L-glutamine), counted (approx. 150 000 cells/well) and plated out on poly-D-lysine-coated 96-well plates (Costar) with 200 μl/well. After 6-7 days at 37° C. (5% CO2), the neurons are freed of culture medium and washed once with assay buffer (154 mM NaCl, 5.6 mM KCl, 2.3 mM CaCl22H2O, 1 mM MgCl2, 5.6 mM glucose, 8.6 mM HEPES (4-(2-hydroxyethyl)piperazine-1-ethanesulfonic acid), pH=7.4). […] After incubation at 37° C. for 20 min, the assay buffer is replaced by 200 μl/well of lysis buffer (cGMP EIA RPN 226 from Amersham Pharmacia Biotech), and the cGMP content of the lystates is determined using an EIA assay kit.
smiles,measurement,value
"Nc1nc(-c2nn(Cc3ccccc3F)c3ccccc23)ncc1N1C2CCCC1COC2 [Example 1, 2-[1-(2-Fluorobenzyl)-1H-indazol-3-yl]-5-(3-oxa-9-azabicyclo[3.3.1]non-9-yl)-4pyrimidinylamine]",increase in cGMP,statistically significant increase in cGMP
